Laboratory results published in ChEMBL document CHEMBL5223175, “Discovery of novel 2-oximino-2-indolylacetamide derivatives as potent anticancer agents capable of inducing cell autophagy and ferroptosis” (Bioorg Med Chem, 2023).
pIC50: −log10 of the molar value.

Columns and labels:
SK-HEP1 = test: Antiproliferative activity against human SK-HEP1 cells assessed as cell viability at 80 uM incubated for 72 hrs by CCK-8 assay; type: functional; conditions: read-out: Activity
HeLa = test: Antiproliferative activity against human HeLa cells assessed as cell viability at 80 uM incubated for 72 hrs by CCK-8 assay; type: functional; conditions: read-out: Activity
5-8F [1] = test: Antiproliferative activity against human 5-8F cells assessed as cell viability at 80 uM incubated for 72 hrs by CCK-8 assay; type: functional; conditions: read-out: Activity
5-8F [2] = test: Antiproliferative activity against human 5-8F cells assessed as reduction in cell viability incubated for 72 hrs by CCK-8 assay; type: functional, cell-based
CAL-27 = test: Antiproliferative activity against human CAL-27 cells assessed as reduction in cell viability incubated for 72 hrs by CCK-8 assay; type: functional, cell-based; conditions: CAL-27, 72 h
[3] = Antiproliferative activity against human NP69SV40T cells assessed as reduction in cell viability incubated for 72 hrs by CCK-8 assay; type: toxicity, cell-based
FaDu = test: Antiproliferative activity against human FaDu cells assessed as reduction in cell viability incubated for 72 hrs by CCK-8 assay; type: functional, cell-based
[4] = Toxicity in BALB/c mouse xenografted with human 5-8F cells assessed as decrease in body weight at 2 mg/kg, ip administered every 2 days; type: organism-based; conditions: in vivo, 48 h, time 2 day

Compound	viability at 80 µM (SK-HEP1)	viability at 80 µM (HeLa)	viability at 80 µM (5-8F [1])	pIC50 (5-8F [2])	pIC50 (CAL-27)	IC50 at 72 h [3]	pIC50 (FaDu)	Activity [4]
Cn1cc(/C(=N\O)C(=O)Nc2ccc(Br)c(F)c2)c2ccccc21	75.6%	56.7%	86.8%					
Cc1ccccc1NC(=O)/C(=N\O)c1cn(C)c2ccccc12	77.6%	86.3%	92.8%					
COc1cccc2c1C(=O)c1c(O)c3c(c(O)c1C2=O)C[C@@](O)(C(=O)CO)C[C@@H]3O[C@H]1C[C@H](N)[C@H](O)[C@H](C)O1 [DOXORUBICIN]				6.47	6.74	0.11 µM	6.80	Toxic
Cn1cc(/C(=N/O)C(=O)Nc2ccc(Br)c(F)c2)c2ccccc21	60.6%	71.2%	75%					
Cn1cc(/C(=N/O)C(=O)Nc2cccc(Cl)c2)c2ccccc21	64.6%	64.6%	78%					
Cn1cc(/C(=N/O)C(=O)Nc2ccc(C(F)(F)F)cc2)c2ccccc21	51.5%	25.7%	45%					
Cn1cc(/C(=N\O)C(=O)Nc2cccc(F)c2)c2ccccc21	40%	53.2%	59.3%					
Cn1cc(/C(=N\O)C(=O)Nc2cccc(Cl)c2)c2ccccc21	31.4%	14%	12.7%					
Cc1ccccc1NC(=O)/C(=N/O)c1cn(C)c2ccccc12	76.8%	77.1%	95.3%					
Cn1cc(/C(=N/O)C(=O)Nc2ccc(Br)cc2)c2ccccc21	29.1%	18.4%	31.5%					
Cn1cc(/C(=N\O)C(=O)Nc2ccc(Br)cc2)c2ccccc21	28.9%	14.8%	22.1%					
Cn1cc(/C(=N\O)C(=O)Nc2ccc(C(F)(F)F)cc2)c2ccccc21	15%	15.8%	10.2%					
Cn1cc(/C(=N/O)C(=O)Nc2cccc(F)c2)c2ccccc21	68%	61.2%	73.1%					
Cn1cc(/C(=N/O)C(=O)Nc2ccc(Cl)cc2)c2ccccc21	71.6%	57.2%	47.2%					
